Common to all, as to type: biochemical
In one test the target is Human MNL PDE IV. As to the kind of experiment: Inhibition of Phosphodiesterase Type IV From Human Mononuclear Lymphocytes (MNL). Conditions: human mononuclear lymphocyte PDE IV; in presence of 10^-4 M cGMP; 1.2 μM 3H-cAMP, pH 7.1, 10 min at 37° C. The procedure:
(§1) The alleviating and/or curing effect of the instant compounds on allergic and atopic diseases was assessed by an in vitro assay system to detect an inhibiting effect on the phosphodiesterase type III in human and canine muscle cells and a similar inhibiting effect on the phosphodiesterase type IV in human mononuclear lymphocytes.
Human blood was obtained from donors that were documented before to suffer from allergic or atopic disease. 35 ml of blood was obtained from the […] veins by venipuncture and collected in 5 ml 100 mM K2 EDTA pH 7.1. 4 ml of 0.6% dextran in saline was added and the mixture was left at room temperature for 30 min. The red blood cell free supernatant was collected, layered gently on a Lymphoprep solution and centrifuged at 750 g for 15 min at 18° C. The interfase was collected, diluted with a buffer containing […], 50 mM KCl and 100 mM HEPES at pH 7.4, and centrifuged at 900 g for 10 min at 10° C. The resulting pellet was resuspended in the same buffer.
The suspension of MNLs was adjusted to 1% Triton X100 and 0.3% Brij35 and frozen in liquid N2. After 3 freeze-thawn cycles, the suspension was homogenized at 4° C. in a Polytron PT3000 (Kinematica AG) homogenizer (PT-DA 3020/2 TS) at 8000 rpm for 5×10 sec, followed by sonication at 4° C. in a Branson sonifier 250 at a frequency output of 20000 Hz, working output 40 W for 10×30 sec. The homogenate was centrifuged at 10000 g for 10 min. The resulting supernatant was used as source for PDE IV activity. The incubation mixture (pH 7.1) (200 μl) contained 40 mM Tris, 3.75 mM 2-mercapto-ethanol, 6 mM magnesium chloride, 1.2 μM ^3 H-cAMP (310 mCi/mmole) and the phosphodiesterase type IV, the amount depending on the enzymatic activity. […] To block contaminating PDE III activity, PDE IV activity was measured in the presence of 10^-4 M cGMP.
(§2) When the effect of different compounds on phosphodiesterase activity was tested, the medium without cAMP was incubated with the compound(s) or its carrier (DMSO-1% final concentration) for 5 min. The enzymatic reaction was started by addition of ^3 H-cAMP and stopped 10 min later after transferring the tubes in a waterbath at 100° C. for 40 sec. After cooling to room temperature, alkaline phosphatase (0.25 μg/ml) was added and the mixture was left at room temperature for 20 min. The mixture was subsequently applied to a 1 ml DEAE-Sephadex A-25 column (pasteur pipet) and washed twice with 3 ml 20 mM Tris-HCl at pH 7.4. The ^3 H-labelled reaction products in the eluate were quantified by liquid scintillation counting.
The inhibiting effect of the present compounds on human mononuclear lymphocyte phosphodiesterase PDE IV was measured at different concentrations of the instant compounds. The IC50 values were calculated graphically from the thus obtained inhibition values.

The next test addresses T1, Human heart PDE III (Homo sapiens, UniProt Q14432).
T1 construct: canine and human heart phosphodiesterase PDE III; from tissue; host or cells: human heart (muscle)
As to the kind of experiment: Inhibition of Phosphodiesterase Type III (PDE III), human heart. Conditions: 1.2 μM 3H-cAMP, pH 7.1, 10 min at 37° C. The method, then:
as §1
(§3) The incubation mixture (pH 7.1) (200 μl) contained 40 mM Tris, 3.75 mM 2-mercaptoethanol, 6 mM magnesium chloride, 1.2 μM ^3 H-cAMP (310 mCi/mmole) and the phosphodiesterase type III, the amount depending on the enzymatic activity.
as §2
(§4) The inhibiting effect of the present compounds on canine and human heart phosphodiesterase PDE III was measured at different concentrations of the instant compounds. The IC50 values were calculated graphically from the thus obtained inhibition values.

A further test addresses T2, Canine heart PDE III (Canis lupus familiaris, UniProt A0A8I3NYE0).
T2 construct: canine and human heart phosphodiesterase PDE III; from tissue; host or cells: canine heart (muscle)
T2 sequence (A0A8I3NYE0 1-1135): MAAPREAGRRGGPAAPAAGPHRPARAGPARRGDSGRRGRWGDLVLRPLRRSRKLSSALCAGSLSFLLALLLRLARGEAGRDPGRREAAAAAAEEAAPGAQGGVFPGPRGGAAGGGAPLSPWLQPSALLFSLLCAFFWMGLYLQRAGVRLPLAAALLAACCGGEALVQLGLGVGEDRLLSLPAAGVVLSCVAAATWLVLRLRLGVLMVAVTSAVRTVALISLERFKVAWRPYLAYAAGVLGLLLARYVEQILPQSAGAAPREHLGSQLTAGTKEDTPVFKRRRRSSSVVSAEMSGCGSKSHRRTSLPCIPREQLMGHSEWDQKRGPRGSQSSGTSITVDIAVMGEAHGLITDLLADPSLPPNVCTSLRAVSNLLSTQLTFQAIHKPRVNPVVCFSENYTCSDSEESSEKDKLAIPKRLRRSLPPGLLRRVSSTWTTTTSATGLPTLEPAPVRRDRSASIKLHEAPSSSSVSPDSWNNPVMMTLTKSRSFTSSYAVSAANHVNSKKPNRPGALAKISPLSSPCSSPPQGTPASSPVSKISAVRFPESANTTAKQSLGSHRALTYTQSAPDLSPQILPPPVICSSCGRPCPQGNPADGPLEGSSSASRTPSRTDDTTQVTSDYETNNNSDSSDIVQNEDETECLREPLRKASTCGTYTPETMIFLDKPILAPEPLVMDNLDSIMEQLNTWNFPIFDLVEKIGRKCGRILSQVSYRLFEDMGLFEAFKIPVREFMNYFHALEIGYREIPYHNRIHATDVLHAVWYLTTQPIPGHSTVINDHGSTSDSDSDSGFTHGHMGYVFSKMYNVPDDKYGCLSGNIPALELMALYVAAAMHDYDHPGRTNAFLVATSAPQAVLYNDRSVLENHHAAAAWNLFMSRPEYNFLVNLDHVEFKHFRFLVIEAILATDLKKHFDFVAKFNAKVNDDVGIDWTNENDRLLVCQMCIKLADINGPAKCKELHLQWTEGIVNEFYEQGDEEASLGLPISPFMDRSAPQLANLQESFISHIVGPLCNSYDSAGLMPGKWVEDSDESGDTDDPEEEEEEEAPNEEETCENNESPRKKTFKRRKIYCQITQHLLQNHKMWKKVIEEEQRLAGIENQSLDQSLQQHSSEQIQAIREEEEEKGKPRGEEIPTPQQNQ
The experiment in a line: Inhibition of Phosphodiesterase Type III (PDE III), canine heart. The following applies: 1.2 μM 3H-cAMP, pH 7.1, 10 min at 37° C. The method, then: as §1, §3, §2, §4

T1 sequence (Q14432 whole entry): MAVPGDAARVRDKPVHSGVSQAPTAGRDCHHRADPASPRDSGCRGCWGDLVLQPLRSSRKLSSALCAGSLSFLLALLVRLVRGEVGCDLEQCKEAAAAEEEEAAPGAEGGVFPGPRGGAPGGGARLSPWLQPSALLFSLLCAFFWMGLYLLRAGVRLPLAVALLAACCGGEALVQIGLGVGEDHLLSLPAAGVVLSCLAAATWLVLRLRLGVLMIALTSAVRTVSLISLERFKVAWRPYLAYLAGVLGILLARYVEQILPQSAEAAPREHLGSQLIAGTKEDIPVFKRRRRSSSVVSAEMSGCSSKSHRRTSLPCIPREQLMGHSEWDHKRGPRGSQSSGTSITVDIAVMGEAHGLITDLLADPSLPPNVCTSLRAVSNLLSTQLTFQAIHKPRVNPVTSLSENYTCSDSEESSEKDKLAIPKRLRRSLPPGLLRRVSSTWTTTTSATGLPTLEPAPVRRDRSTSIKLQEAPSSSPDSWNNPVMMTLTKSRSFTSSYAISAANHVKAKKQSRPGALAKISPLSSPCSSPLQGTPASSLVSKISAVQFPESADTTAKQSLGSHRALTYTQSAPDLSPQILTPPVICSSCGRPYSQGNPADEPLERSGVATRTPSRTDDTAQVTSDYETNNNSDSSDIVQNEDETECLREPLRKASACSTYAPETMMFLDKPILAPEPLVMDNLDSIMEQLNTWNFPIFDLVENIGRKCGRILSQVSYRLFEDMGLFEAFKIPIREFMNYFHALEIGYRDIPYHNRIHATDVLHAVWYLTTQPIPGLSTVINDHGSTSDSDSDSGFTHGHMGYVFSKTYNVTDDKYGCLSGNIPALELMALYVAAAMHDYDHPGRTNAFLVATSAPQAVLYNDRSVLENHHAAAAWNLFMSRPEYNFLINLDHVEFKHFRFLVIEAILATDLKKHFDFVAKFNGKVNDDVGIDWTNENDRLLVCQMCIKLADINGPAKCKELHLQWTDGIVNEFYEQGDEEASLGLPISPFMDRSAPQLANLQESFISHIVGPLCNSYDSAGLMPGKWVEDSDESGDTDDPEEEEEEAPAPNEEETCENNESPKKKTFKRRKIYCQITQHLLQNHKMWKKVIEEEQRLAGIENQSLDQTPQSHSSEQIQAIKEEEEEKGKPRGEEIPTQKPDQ

Turning to `O=C(c1ccccc1)c1ccc2nc3[nH]c(=O)[nH]c3cc2c1` [Compound 1, 7-benzoyl-1,3-dihydro-2H-imidazo[4,5-b]quinolin-2-one], the 50% inhibitory concentration (IC50) on Human MNL PDE IV is 5800 nM; on Human heart PDE III, 42 nM; against Canine heart PDE III, 10 nM.
`CCOC(=O)CO/N=C/c1ccc2nc3[nH]c(=O)[nH]c3cc2c1` [Compound 11]: the IC50 is 39 nM against Human heart PDE III and 26 nM on Canine heart PDE III.
Consider `COc1ccc(C(=O)c2ccc3nc4[nH]c(=O)[nH]c4cc3c2)cc1OC` [Compound 2, 7-(3,4-dimethoxybenzoyl)-1,3-dihydro-2H-imidazo[4,5-b]quinolin-2-one], for which the IC50 came to 4500 nM at Human MNL PDE IV, 86 nM at Human heart PDE III and 33 nM against Canine heart PDE III.
On to `CCOC(=O)CCCCO/N=C(/c1cccnc1)c1ccc2nc3[nH]c(=O)[nH]c3cc2c1` [Compound 12], for which the IC50 on Human MNL PDE IV amounted to 3600 nM; at Human heart PDE III, 33 nM; against Canine heart PDE III, 29 nM.
For the compound `O=C(O)CCCCON=C(c1cccnc1)c1ccc2nc3[nH]c(=O)[nH]c3cc2c1` [Compound 14, (E+Z)-5-[[[(2,3-dihydro-2-oxo-1H-imidazo[4,5-b]quinolin-7-yl)(3-pyridinyl)methylene]amino]oxy]pentanoic acid monohydrate], the IC50 against Human heart PDE III and against Canine heart PDE III was 100 nM each time.
`O=C(c1cccnc1)c1ccc2nc3[nH]c(=O)[nH]c3cc2c1` [Compound 5, 1,3-dihydro-7-(3-pyridinylcarbonyl-2H-imidazo[4,5-b]quinolin-2-one monohydrate]: the figures for the IC50 against Human heart PDE III and against Canine heart PDE III were 120 nM and 42 nM, respectively.
With `CCOC(=O)CCCCO/N=C(\c1cccnc1)c1ccc2nc3[nH]c(=O)[nH]c3cc2c1` [Compound 6], the IC50 at Human MNL PDE IV was 1700 nM; on Human heart PDE III it was 44 nM; against Canine heart PDE III, 30 nM.
Turning to `O=C(O)CCCCO/N=C(\c1cccnc1)c1ccc2nc3[nH]c(=O)[nH]c3cc2c1` [Compound 13, (Z)-5-[[[(2,3-dihydro-2-oxo-1H-imidazo[4,5-b]-quinolin-7-yl)(3-pyridinyl)methylene]amino]oxy]pentanoic acid], the values for the IC50 on Human heart PDE III and against Canine heart PDE III were 49 nM and 84 nM, respectively.
Regarding `CN(C(=O)CO/N=C(/c1ccccc1)c1ccc2nc3[nH]c(=O)[nH]c3cc2c1)C1CCCCC1` [Compound 7], the values for the IC50 on Human MNL PDE IV, at Human heart PDE III and on Canine heart PDE III were 2600 nM, 27 nM and 32 nM, respectively.
Regarding `COc1cccc(C(=O)c2ccc3nc4[nH]c(=O)[nH]c4cc3c2)c1` [Compound 9], the results for the IC50 against Human heart PDE III and on Canine heart PDE III were 18 nM and 21 nM, respectively.
As for `Cc1ccc(C(=O)c2ccc3nc4[nH]c(=O)[nH]c4cc3c2)cc1` [Compound 4, 1,3-dihydro-7-(4-methylbenzoyl)-2H-imidazo[4,5-b]quinolin-2-one], the IC50 against Human heart PDE III came out at 18 nM; against Canine heart PDE III, 26 nM.
For `O=C(c1ccc(F)cc1)c1ccc2nc3[nH]c(=O)[nH]c3cc2c1` [Compound 3, 7-(4-fluorobenzoyl)-1,3-dihydro-2H-imidazo[4,5-b]quinolin-2-one] the same measures were 36 nM and 37 nM.
On to `CN(C(=O)CO/N=C(\c1ccccc1)c1ccc2nc3[nH]c(=O)[nH]c3cc2c1)C1CCCCC1` [Compound 10, (E)-N-cyclohexyl-2-[[[(2,3-dihydro-2-oxo-1H-imidazo{4,5-b]quinolin-7-yl)phenylmethylene]amino]oxy]-N-methylacetamide], for which the IC50 on Human MNL PDE IV amounted to 490 nM; on Human heart PDE III it was 17 nM; at Canine heart PDE III, 14 nM.

Usually IC50 stands for the concentration at which inhibition is half-maximal.

The values above are taken from patent US5516908A, “1,3-dihydro-2H-imidazo-[4,5-β]quinolin-2-one derivatives and intermediates” (Janssen Pharmaceutica N.V., priority 1995, dated 1996).
